What was measured:
[1] = tested on: IL-6; test: IL-6 assay (ELISA) in Ad5-wt-ER infected HAECT-1 cells; assay type: cell-based, human; settings: for ER/IL-6 % Eff: relative to the maximal inhibition observed with E2; for IC50: IL-1 treated
Description: (§1) After four hours, cells were washed with EBM-BSA and incubated overnight in the same medium. […] After two hours, cells were washed and incubated at 34° C. for 1 hour. Cells were then washed, trypsinized, counted and resuspended in 95% FBS/5% dimethylsulfoxide at a concentration of 4×10^6 cells/ml, frozen as 1 or 5 ml aliquots in cryo-vials and stored at −150° C. Control (no ER infection) cells were processed as above without Ad5-wt-hER virus infection. […] Cells were subsequently washed with 300 l of Dulbecco's phosphate buffered saline and lysed in 50 l of Cell Culture Lysis Reagent (Promega). Luciferase was determined on a Wallac Victor^2 Luminometer (Gaithersburg, Md.) using 10 l of lysate and mixing with 100 l of Promega Luciferase Assay reagent. Creatine kinase was determined from the rate of increase in A340 following addition of 100 l of CK assay reagent (Sigma, cat. […] For IC50 and EC50 calculations, mean IL-6, luciferase or CK values versus log10 of the compound concentration were fitted to a four parameter logistic equation. The IC50/EC50 value, ‘Hill slope’, upper and lower limits of the curve were iteratively estimated.

[2] = tested on: creatine kinase; test: Creatine kinase assay in Ad5-wt-ER infected HAECT-1 cells; assay type: cell-based, human; settings: for EC50: Homo sapiens, HAECT1, N/O = activity not observed at doses tested, read-out: ER/CK EC50; for ER/CK % Eff*: relative to the maximal stimulation observed with E2; for ER/CK EC50: N/O = activity not observed at doses tested
Description: as §1

[3] = tested on: NF-κB; test: NFκB-luciferase assay in Ad5-wt-ER infected HAECT-1 cells; assay type: cell-based, human; settings: for IC50: IL-1 treated, read-out: ER/NF-KB-luc IC50; for ER/NF-KB-luc % Eff*: relative to the maximal inhibition observed with E2
Description: T-175 flasks of 100% confluent HAECT-1 cells (immortalized human aortic endothelial cells) were washed with 8 ml of HBSS (HEPES buffered saline solution) and infected for four hours with 6 ml of a 1:10 dilution of Ad5-wt-hER virus (an adenovirus transfection vector that mediates CMV promoter driven expression of human ER) in phenol red free Endothelial Cell Basal medium (Clonetics, San Diego Calif., Catalog # CC-3129) containing 0.25% bovine serum albumin (EBM-BSA). After four hours, cells were washed with EBM-BSA and incubated overnight in the same medium. Following overnight incubation, cells were washed with EBM-BSA and infected for 2 hours with 6 ml of a 1:10 dilution of Ad5-3×(NF B).Luc virus (Adenovirus luciferase expression vector driven by 3 repeats of the MHC NF b site 5′ to the thymidine kinase promoter) in EBM-BSA. After two hours, cells were washed and incubated at 34° C. for 1 hour. Cells were then washed, trypsinized, counted and resuspended in 95% FBS/5% dimethylsulfoxide at a concentration of 4×10^6 cells/ml, frozen as 1 or 5 ml aliquots in cryo-vials and stored at −150° C. Control (no ER infection) cells were processed as above without Ad5-wt-hER virus infection.
ER infected HAECT-1 cells or control cells were thawed, diluted 42× in warm EBM-BSA, plated into 96-well plates at 0.1 ml/well and incubated for 4 h at 34° C. Test compounds were added to the cells as 2× stocks in EBM-BSA containing 2 ng/ml IL-1 (R&D Systems) and plates were returned to the incubator (34° C.). After 15-20 h, 100 l aliquots of media were removed from the cells and assayed for IL-6 content using a BioSource human IL-6 ELISA Kit. Cells were subsequently washed with 300 l of Dulbecco's phosphate buffered saline and lysed in 50 l of Cell Culture Lysis Reagent (Promega). Luciferase was determined on a Wallac Victor^2 Luminometer (Gaithersburg, Md.) using 10 l of lysate and mixing with 100 l of Promega Luciferase Assay reagent. Creatine kinase was determined from the rate of increase in A340 following addition of 100 l of CK assay reagent (Sigma, cat. No 47-10) to the remainder of the cell lysate.
For IC50 and EC50 calculations, mean IL-6, luciferase or CK values versus log10 of the compound concentration were fitted to a four parameter logistic equation. The IC50/EC50 value, ‘Hill slope’, upper and lower limits of the curve were iteratively estimated.

[4] = Ad5-wt-ER infected HAECT-1 cells
[5] = Homo sapiens, HAECT1, Ad5-wt-ER infected HAECT-1 cells

| Structure (SMILES) | melting point [°C] | IC50 [1, 5] [nM] | EC50 [2] [nM] | ER/IL-6 % Eff [1, 4] [%] | ER/CK % Eff* [2] [%] | ER/CK EC50 [2] | IC50 [3] [nM] | ER/NF-KB-luc % Eff* [3] [%] | IC50 [1, 4] [nM] |
| --- | --- | --- | --- | --- | --- | --- | --- | --- | --- |
| CC1c2ccccc2-c2sccc2N1S(=O)(=O)c1ccc(O)cc1 (stereo not drawn) [Example 4, 4-[(5-Methylthieno[3,2-c]isoquinolin-4(5H)-yl)sulfonyl]phenol] | 163 to 165 | 66.8 | 100 | 172 | 42 | – | – | – | – |
| CC1c2ccccc2-c2sc(Br)cc2N1S(=O)(=O)c1ccc(O)cc1 (stereo not drawn) [Example 6, 4-[(2-Bromo-5-methylthieno[3,2-c]isoquinolin-4(5H)-yl)sulfonyl]phenol] | 209 to 211 | 28.2 | – | 162 | – | N/O | – | – | – |
| C[C@@H]1c2ccccc2-c2sc(Br)cc2N1S(=O)(=O)c1ccc(O)cc1 [Example 7, 4-{[(5R)-2-bromo-5-methylthieno[3,2-c]isoquinolin-4-(5H)-yl]sulfonyl}phenol] | – | – | – | 161 | – | N/O | 1450 | 84 | 5820 |
| C[C@H]1c2ccccc2-c2sc(Br)cc2N1S(=O)(=O)c1ccc(O)cc1 [Example 8, 4-{[(5S)-2-bromo-5-methylthieno[3,2-c]isoquinolin-4-(5H)-yl]sulfonyl}phenol] | – | – | – | 164 | – | N/O | 19 | 92 | 8.9 |
| CC1c2ccccc2-c2sc(Br)cc2N1S(=O)(=O)c1ccc(O)c(Br)c1 (stereo not drawn) [Example 12, 2-Bromo-4-[(2-bromo-5-methylthieno[3,2-c]isoquinolin-4(5H)-yl)sulfonyl]phenol] | – | 1480 | 1540 | 197 | 35 | – | – | – | – |
| C[C@]12CC[C@@H]3c4ccc(O)cc4CC[C@H]3[C@@H]1CC[C@@H]2O [Example E2, 17β-estradiol, reference compound] | – | – | 5.8 | 100 | 100 | – | – | – | 1.7 |

Second part, led by results:

| melting point [°C] | IC50 [1, 5] [nM] | EC50 [2] [nM] | Structure (SMILES) | ER/IL-6 % Eff [1, 4] [%] | ER/CK % Eff* [2] [%] | ER/CK EC50 [2] | IC50 [3] [nM] | ER/NF-KB-luc % Eff* [3] [%] | IC50 [1, 4] [nM] |
| --- | --- | --- | --- | --- | --- | --- | --- | --- | --- |
| 119 to 122 | – | – | CCc1cc2c(s1)-c1ccccc1C(CC)N2S(=O)(=O)c1ccc(O)cc1 (stereo not drawn) | – | – | – | – | – | – |
| 169 to 171 | 21.3 | – | CCC1c2ccccc2-c2sccc2N1S(=O)(=O)c1ccc(O)cc1 (stereo not drawn) [Example 5, 4-[(5-Ethylthieno[3,2-c]isoquinolin-4(5H)-yl)sulfonyl]phenol] | 174 | – | N/O | – | – | – |
| 183 to 185 | 7.7 | 47 | CCC1c2ccccc2-c2sc(Br)cc2N1S(=O)(=O)c1ccc(O)cc1 (stereo not drawn) [Example 9, 4-[(2-Bromo-5-ethylthieno[3,2-c]isoquinolin-4(5H)-yl)sulfonyl]phenol] | 194 | 33 | – | – | – | – |
| 195 to 196 | – | – | CCC1c2ccccc2-c2sc(-c3ccsc3)cc2N1S(=O)(=O)c1ccc(O)cc1 (stereo not drawn) [Example 10, 4-[(5-Ethyl-2-thien-3-ylthieno[3,2-c]isoquinolin-4(5H)-yl)sulfonyl]phenol] | – | – | – | – | – | – |
| – | 24.6 | 15 | CCC1c2ccccc2-c2sc(-c3ccccc3)cc2N1S(=O)(=O)c1ccc(O)cc1 (stereo not drawn) [Example 11, 4-[(5-Ethyl-2-phenylthieno[3,2-c]isoquinolin-4(5H)-yl)sulfonyl]phenol] | 132 | 63 | – | – | – | – |

From patent US7696221B2, “Thienoisoquinoline-phenylsulfonamides and their use as ER-NFκB inhibitors” (Wyeth LLC, priority 2004, dated 2010)
